From PubChem BioAssay AID2060882 (Molecular Pharmacology Branch, DTP, NCI, 2025)
Several values for one entry are separate records, joined by “and”; a condition that tells them apart may be missing. Identical values can stand only once.

System: 898857-211-R-J1-PDC complex spheroids, growth % test/control
Experiment: Anticancer human tumor 898857-211-R-J1-PDC patient-derived melanoma cell line growth inhibition [RAS]
Conditions: for viability, T/C: stronger effect = lower value
From the text: RAS pathway inhibitors in Combinations in Complex Spheroids
A high-throughput screen of multi-cell type tumor spheroids was designed to identify active combinations of RAS pathway inhibitors and targeted small molecules. Complex spheroids include a stromal component modeled by human endothelial cells (HUVEC) and fibroblasts modeled by human mesenchymal stem cells (MSCs). The concentration ranges selected for each drug and investigational agent were based upon clinically achievable concentrations if the clinical Cmax of the agent was known.
Compounds. The drugs and investigational agents: abemaciclib (NSC768073), cobimetinib (NSC768068), divarasib (GDC6063, NSC841802), docetaxel (NSC628503), GDC-1971 (RLY-1971, NSC841576), gemcitabine (NSC613327), inavolisib (NSC800729), ipatasertib (NSC767898), KB-0742 (NSC834161), MRTX-1133 (NSC836407), osimertinib (NSC779217), RMC-4630 (NSC839698), RMC-6236 (NSC851965), RMC-6291 (NSC852671), Ro-3306 (NSC812927), sapanisertib (NSC764658), SN-38 (NSC673596), staurosporine (NSC755774), SY5609 (NSC837396), and tovorafenib (DAY101, NSC766906), were obtained from the National Cancer Institute (NCI) Developmental Therapeutics Program Chemical Repository. The FDA-approved anticancer drug set is available from the NCI Developmental Therapeutics Program. […] The stock solutions were prepared in dimethyl sulfoxide (DMSO, Sigma-Aldrich, St. Louis, MO, cat. D2650) at 800-fold the tested concentration and stored at -70 degrees C prior to their use. All drugs and investigational agents were tested over a range starting from a high concentration at or near the clinical Cmax and decreasing in half-log increments. If the clinical Cmax for an agent had not been determined, the highest concentration tested was 10 microM.
Cell Culture. All cells were maintained in an incubator at 37 degrees C and 5% CO2 with 95% humidity. The PDC lines were cultured according to standard operating procedures established by the NCI PDMR. All PDCs were thawed and cultured in Matrigel-coated flasks prepared with a working solution of 1X Ham's F-12 nutrient mix, without supplementation (Invitrogen, Waltham, MA, cat. 11765054), 100 U/mL penicillin-streptomycin (Invitrogen, cat. 15140122), and 2.5% Matrigel (Corning Inc., Corning, NY, cat. 354248) for the first three passages. The 362531-283-R-J2-PDC and 782815-120-R-J1-PDC lines were cultured in 6C/Colon 1B media, which includes advanced DMEM/F-12 (Thermo Fisher Scientific, cat. 12634028), 10 mM HEPES (Thermo Fisher Scientific, cat. 15630080), 1X GlutaMAX supplement (Thermo Fisher Scientific, cat. 35050061), 0.1 mg/mL primocin (InvivoGen, San Diego, CA, cat. ant-pm-2), 10% defined fetal bovine serum, heat inactivated (HyClone Laboratories Inc., Logan, UT, cat. SH30070.03HI), 50% L-WRN conditioned media (ATCC, cat. CRL-3276), 1.25 mM N-Acetyl-L-cysteine (Sigma-Aldrich, cat. A9165), 10 mM nicotinamide (Sigma-Aldrich, cat. N0636), 1X B-27 supplement (Thermo Fisher Scientific, cat. 17504044), 1X N-2 supplement (Thermo Fisher Scientific, cat. 17502048), 50 ng/mL human EGF (Thermo Fisher Scientific, cat. PHG0311), and 10 microM Y-27632 dihydrochloride (Tocris Bioscience, cat. 1254). The K12877-001-R-J1-PDC line was cultured in 6I media, which includes all 6C/Colon 1B media plus 10 ng/mL human FGF-10 (PeproTech, cat. 100-26), 1 ng/mL human FGF-2 (PeproTech, cat. 100-18B), 1 µM prostaglandin E2 (Tocris Bioscience, cat. 2296), […] hydrocortisone (Sigma-Aldrich, cat. H4001), and […] bovine insulin (Sigma-Aldrich, cat. I6634). The K86415-001-R-J1-PDC line was cultured in 6D media, which includes all 6C/Colon 1B media components minus the L-WRN conditioned media. The 485176-168-R4-J1-PDC was cultured in PANC media, which includes all 6C/Colon 1B media plus 100 ng/mL human FGF-10 (PeproTech, cat. 100-26), 500 nM SB-431542 (Selleckchem, cat. S1067), and 10 nM gastrin (Tocris Bioscience, cat. 3006). […]
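Further: spheroids exposed to compound for seven days before readout.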
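Wherever viability, T/C is given: 100% = DMSO vehicle control wells.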

Row | SMILES | IC50 (curve of compound) | IC50 (compound alone, run of 08/26/2024) | IC50 (compound alone, run of 08/20/2024) | viability, T/C (compound 0.000316 µM) | viability, T/C (compound 0.001 µM) | viability, T/C (compound 0.00316 µM) | viability, T/C (compound 0.01 µM) | viability, T/C (compound 0.0316 µM) | viability, T/C (compound 0.1 µM) | viability, T/C (compound 0.000949 µM) | viability, T/C (compound 0.003 µM) | viability, T/C (compound 0.00949 µM) | viability, T/C (compound 0.03 µM) | viability, T/C (compound 0.0949 µM) | viability, T/C (compound 0.3 µM) | viability, T/C (compound 0.316 µM) | viability, T/C (compound 1 µM)
1 | CCc1c2c(nc3ccc(O)cc13)-c1cc3c(c(=O)n1C2)COC(=O)[C@]3(O)CC | 4.92 nM [middle of 4 runs] |  |  |  |  |  |  |  |  | 96.5% [middle of 4 runs] | 65.1% [middle of 4 runs] | 30.4% [middle of 4 runs] | 10.2% [middle of 4 runs] | 7.84% [middle of 4 runs] | 7.49% [middle of 4 runs] |  | 
2 | CCn1c(-c2cccnc2C(C)OC)c2c3cc(ccc31)N1CCOC(CC(NC(=O)C(C(C)C)N(C)C(=O)C3(F)CCN(C(=O)C#CC(C)(C)N(C)C)CC3)C(=O)N3CCCC(N3)C(=O)OCC(C)(C)C2)C1 (stereo not drawn) |  |  | > 300 nM |  |  |  |  |  |  | 110% [middle of 6 runs] |  | 112% [middle of 6 runs] | 103% [middle of 6 runs] | 92.8% [middle of 6 runs] | 81.3% [middle of 6 runs] |  | 
3 | Nc1ccn(C2OC(CO)C(O)C2(F)F)c(=O)n1 (stereo not drawn) | 7.17 nM [middle of 4 runs] |  |  |  |  |  | 30.2% [middle of 4 runs] | 6.09% [middle of 4 runs] | 4.85% [middle of 4 runs] |  |  |  |  |  |  | 4.59% [middle of 4 runs] | 4.83% [middle of 4 runs]
4 | O=C(c1ccc(F)c(F)c1Nc1ccc(I)cc1F)N1CC(O)([C@@H]2CCCCN2)C1 |  |  |  |  |  | 56.5% [middle of 4 runs] | 40.4% (2×) and 26.7% and 33.1% | 28.9% [middle of 4 runs] | 20.3% [middle of 4 runs] |  |  |  |  |  |  | 18.5% [middle of 4 runs] | 13.4% [middle of 4 runs]

Second part, led by results:

Row | IC50 (curve of compound) | IC50 (compound alone, run of 08/26/2024) | IC50 (compound alone, run of 08/20/2024) | SMILES | viability, T/C (compound 0.000316 µM) | viability, T/C (compound 0.001 µM) | viability, T/C (compound 0.00316 µM) | viability, T/C (compound 0.01 µM) | viability, T/C (compound 0.0316 µM) | viability, T/C (compound 0.1 µM) | viability, T/C (compound 0.000949 µM) | viability, T/C (compound 0.003 µM) | viability, T/C (compound 0.00949 µM) | viability, T/C (compound 0.03 µM) | viability, T/C (compound 0.0949 µM) | viability, T/C (compound 0.3 µM) | viability, T/C (compound 0.316 µM) | viability, T/C (compound 1 µM)
5 | 28.7 nM [middle of 4 runs] |  |  | CC(C)n1nc(-c2ccc3oc(N)nc3c2)c2c(N)ncnc21 | 112% [middle of 4 runs] | 95.8% [middle of 4 runs] | 96.8% [middle of 4 runs] | 73.3% [middle of 4 runs] | 48.5% [middle of 4 runs] | 20.9% [middle of 4 runs] |  |  |  |  |  |  |  | 
6 | 4.47 nM and 3.41 nM and 5.16 nM |  |  | CC1(C)CCC(Nc2ncc(C(F)(F)F)c(-c3c[nH]c4c(P(C)(C)=O)c(C#N)ccc34)n2)CN1 (stereo not drawn) |  |  |  |  |  |  | 92.3% and 96.9% and 98.6% | 59.9% and 52.9% and 65.2% | 31.4% and 26.4% and 32.5% | 20.2% and 16.2% and 24.3% | 17.3% and 16.8% and 20.4% | 18.4% and 16.5% and 20% |  | 
7 | 444 nM and 323 nM and 370 nM |  |  | CCN1CCN(Cc2ccc(Nc3ncc(F)c(-c4cc(F)c5nc(C)n(C(C)C)c5c4)n3)nc2)CC1 |  |  | 112% and 130% and 92.5% | 92% (2×) and 103% | 97.3% and 96% and 83% | 73.1% and 62.7% and 65.1% |  |  |  |  |  |  | 51.2% and 51.1% and 55.3% | 44.4% and 36% and 33.4%
8 |  | > 300 nM |  | CCn1c(-c2cc(N3CCN(C)CC3)cnc2C(C)OC)c2c3cc(ccc31)-c1csc(n1)CC(NC(=O)C1CC1C)C(=O)N1CCCC(N1)C(=O)OCC(C)(C)C2 (stereo not drawn) |  |  |  |  |  |  | 111% [middle of 8 runs] | 109% [middle of 8 runs] | 102% [middle of 8 runs] | 105% [middle of 8 runs] | 96.2% [middle of 8 runs] | 100% [middle of 8 runs] |  | 
